Earlier results in US20030190360A1, “Chronotherapeutic dosage forms containing glucocorticosteroid and methods of treatment” (priority 2001, published 2003).

Settings: equivalent doses of glucocorticoids

Structure (SMILES)	Approximate Equivalent Dose
C[C@]12CCC(=O)C=C1CC[C@@H]1[C@@H]2[C@@H](O)C[C@@]2(C)[C@H]1CC[C@]2(O)C(=O)CO [Hydrocortisone]	20 mg
C[C@]12C=CC(=O)C=C1CC[C@H]1[C@@H]3C[C@@H](O)[C@](O)(C(=O)CO)[C@@]3(C)C[C@H](O)[C@@]12F [Triamcinolone]	4 mg
C[C@]12CCC(=O)C=C1CC[C@@H]1[C@@H]2C(=O)C[C@@]2(C)[C@H]1CC[C@]2(O)C(=O)CO [Cortisone]	25 mg
C[C@]12C=CC(=O)C=C1CC[C@@H]1[C@@H]2[C@@H](O)C[C@@]2(C)[C@H]1CC[C@]2(O)C(=O)CO [Prednisolone]	5 mg
